Experimental data reported in patent US4942040A, “Pharmaceutical preparation and a process for its preparation” (priority 1987, dated 1990).

Key:
Format in all cases: physicochemical
[1] = Cumulative in vitro dissolution of felodipine and metoprolol (Example 1 tablet), USP dissolution apparatus No. 2, 50 rpm, pH 6.5 with 1% sodium dodecylsulphate; details: pH 6.5, 1% sodium dodecylsulphate
Experimental: Cumulative in vitro dissolution of felodipine and metoprolol in
a phosphate buffer of pH 6.5 with 1% sodium dodecylsulphate.
Method: USP dissolution apparatus No. 2, 50 rpm.

[2] = Cumulative in vitro dissolution of nifedipine and metoprolol (Example 2 tablet), USP dissolution apparatus No. 2, 100 rpm, pH 6.5 with 1% sodium dodecylsulphate; details: pH 6.5, 1% sodium dodecylsulphate
[3] = Cumulative in vitro dissolution of metoprolol (Reference example B tablet), USP dissolution apparatus No. 2, 50 rpm, phosphate buffer pH 6.8; details: phosphate buffer pH 6.8, 50 rpm
From the text: The dissolution rate in vitro from this tablet is shown in Table 3. |Cumulative in vitro dissolution of metoprolol in a phosphate buffer |pH 6.8. |Method: […]

Percent released over time (h) ([1]; 0 h) | Percent released over time (h) ([1]; 2 h) | Percent released over time (h) ([1]; 4 h) | Percent released over time (h) ([1]; 8 h) | Percent released over time (h) ([1]; 12 h) | Percent released over time (h) ([1]; 16 h) | Percent released over time (h) ([1]; 20 h) | Percent released over time (h) ([2]; 0 h) | Percent released over time (h) ([2]; 2 h) | Percent released over time (h) ([2]; 4 h) | Percent released over time (h) ([2]; 8 h) | Percent released over time (h) ([2]; 12 h) | Percent released over time (h) ([2]; 16 h) | Percent released over time (h) ([2]; 20 h) | Percent released over time (h) ([3]; 0 h) | Percent released over time (h) ([3]; 1 h) | Percent released over time (h) ([3]; 4 h) | Percent released over time (h) ([3]; 8 h) | Percent released over time (h) ([3]; 12 h) | Percent released over time (h) ([3]; 20 h) | Compound
0% | 14% | 32% | 64% | 88% | 96% | 98% |  |  |  |  |  |  |  |  |  |  |  |  |  | CCOC(=O)C1=C(C)NC(C)=C(C(=O)OC)C1c1cccc(Cl)c1Cl (stereo not drawn) [felodipine, 4-(2,3-dichlorophenyl)-1,4-dihydro-2,6-dimethyl-3,5-pyridinedicarboxylic acid ethyl methyl ester]
0% | 5% | 16% | 39% | 65% | 86% | 95% | 0% | 6% | 16% | 34% | 50% | 62% | 75% | 0% | 23% | 59% | 86% | 99% | 100% | COCCc1ccc(OCC(O)CNC(C)C)cc1 (stereo not drawn) [metoprolol]
